Data taken from ChEMBL document CHEMBL4507260 (2021).
Active and inactive are the calls of the source. The calls are words filed in the database; no cut-off is given here.

Experiments:
[1] = biological target: TGF-beta receptor type-1 (Homo sapiens) (UniProt P36897); settings: Compound concentration 1000.0 nM
[2] = biological target: Serine/threonine-protein kinase MRCK alpha (Homo sapiens) (UniProt Q5VT25); settings: Compound concentration 1000.0 nM
[3] = biological target: Serine/threonine-protein kinase 35 (Homo sapiens) (UniProt Q8TDR2); settings: Compound concentration 1000.0 nM
[4] = biological target: Eukaryotic translation initiation factor 2-alpha kinase 1 (Homo sapiens) (UniProt Q9BQI3); settings: Compound concentration 1000.0 nM
[5] = biological target: Wee1-like protein kinase (Homo sapiens) (UniProt P30291); settings: Compound concentration 1000.0 nM
[6] = biological target: Phosphatidylinositol 4,5-bisphosphate 3-kinase catalytic subunit delta isoform (Homo sapiens) (UniProt O00329); settings: Compound concentration 1000.0 nM
[7] = biological target: Protein-tyrosine kinase 6 (Homo sapiens) (UniProt Q13882); settings: Compound concentration 1000.0 nM
[8] = test system: Epidermal growth factor receptor (Homo sapiens), P00533 [L858R]; settings: Compound concentration 1000.0 nM
[9] = biological target: Mitogen-activated protein kinase kinase kinase 9 (Homo sapiens) (UniProt P80192); settings: Compound concentration 1000.0 nM
[10] = test system: Mast/stem cell growth factor receptor Kit (Homo sapiens), P10721 [V559D,T670I]; settings: Compound concentration 1000.0 nM
[11] = biological target: Homeodomain-interacting protein kinase 3 (Homo sapiens) (UniProt Q9H422); settings: Compound concentration 1000.0 nM
[12] = biological target: Serine/threonine-protein kinase Nek10 (Homo sapiens) (UniProt Q6ZWH5); settings: Compound concentration 1000.0 nM
[13] = test system: Epidermal growth factor receptor (Homo sapiens), P00533 [UNDEFINED MUTATION]; settings: Compound concentration 1000.0 nM
[14] = test system: Receptor-type tyrosine-protein kinase FLT3 (Homo sapiens), P36888 [R834Q]; settings: Compound concentration 1000.0 nM
[15] = biological target: Mitogen-activated protein kinase 7 (Homo sapiens) (UniProt Q13164); settings: Compound concentration 1000.0 nM
[16] = biological target: Tumor necrosis factor (Homo sapiens) (UniProt P01375); settings: Compound concentration 10.0 uM
Description: TNF-a CEREP ligand profiling

[17] = biological target: Melatonin receptor type 1A (Homo sapiens) (UniProt P48039); assay: ML1 CEREP ligand profiling; settings: Compound concentration 10.0 uM
[18] = biological target: Delta-type opioid receptor (Homo sapiens) (UniProt P41143); settings: Compound concentration 10.0 uM
Description: delta CEREP ligand profiling

[19] = biological target: Vasoactive intestinal polypeptide receptor 1 (Homo sapiens) (UniProt P32241); settings: Compound concentration 10.0 uM
Description: VIP1 (VPAC1) CEREP ligand profiling

[20] = biological target: C-X-C chemokine receptor type 2 (Homo sapiens) (UniProt P25025); settings: Compound concentration 10.0 uM
Description: IL-8B (CXCR2) CEREP ligand profiling

[21] = biological target: Calcitonin-gene-related peptide receptor, CALCRL/RAMP1 (Homo sapiens) (UniProt O60894+Q16602); settings: Compound concentration 10.0 uM
Description: CGRP CEREP ligand profiling

[22] = biological target: Adenosine receptor A3 (Homo sapiens) (UniProt P0DMS8); assay: A3 CEREP ligand profiling; settings: Compound concentration 10.0 uM
[23] = biological target: Neuromedin-K receptor (Homo sapiens) (UniProt P29371); assay: NK3 CEREP ligand profiling; settings: Compound concentration 10.0 uM
[24] = biological target: GABA-A receptor; anion channel (Homo sapiens) (UniProt P14867+P47870+P18507+P28472+P48169+Q99928+Q9UN88+P34903+O00591+O14764+Q8N1C3+P18505+P78334+P47869+P31644+Q16445); settings: Compound concentration 10.0 uM
Description: Cl- channel CEREP ligand profiling

[25] = biological target: Gastrin/cholecystokinin type B receptor (Homo sapiens) (UniProt P32239); assay: CCKB (CCK2) CEREP ligand profiling; settings: Compound concentration 10.0 uM
[26] = biological target: Galanin receptor type 1 (Homo sapiens) (UniProt P47211); settings: Compound concentration 10.0 uM
Description: GAL1 CEREP ligand profiling

[27] = biological target: Endothelin-1 receptor (Homo sapiens) (UniProt P25101); settings: Compound concentration 10.0 uM
Description: ETA CEREP ligand profiling

[28] = biological target: Histamine H1 receptor (Homo sapiens) (UniProt P35367); assay: H1 CEREP ligand profiling; settings: Compound concentration 10.0 uM
[29] = biological target: Beta-1 adrenergic receptor (Homo sapiens) (UniProt P08588); settings: Compound concentration 10.0 uM
Description: b 1 CEREP ligand profiling

D(4) dopamine receptor [30] = biological target: T1, D(4) dopamine receptor (Homo sapiens, UniProt P21917); assay: Radioligand assay using 3[H] A-369508
T1 sequence (P21917 whole entry): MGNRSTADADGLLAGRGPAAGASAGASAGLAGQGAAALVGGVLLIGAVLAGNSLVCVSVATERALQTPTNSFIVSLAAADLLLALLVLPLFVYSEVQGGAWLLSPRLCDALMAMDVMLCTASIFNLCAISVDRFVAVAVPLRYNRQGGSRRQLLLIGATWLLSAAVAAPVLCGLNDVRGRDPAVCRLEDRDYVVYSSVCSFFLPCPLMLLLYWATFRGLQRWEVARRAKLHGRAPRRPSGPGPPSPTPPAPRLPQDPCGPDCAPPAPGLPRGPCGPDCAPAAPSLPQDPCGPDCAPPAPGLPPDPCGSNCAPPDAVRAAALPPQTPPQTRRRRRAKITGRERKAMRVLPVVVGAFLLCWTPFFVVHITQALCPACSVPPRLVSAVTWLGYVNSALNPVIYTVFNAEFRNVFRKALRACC

[31] = biological target: 5-hydroxytryptamine receptor 1B (Homo sapiens) (UniProt P28222); settings: Compound concentration 10.0 uM
Description: 5-HT1B CEREP ligand profiling

[32] = biological target: D(2) dopamine receptor (Homo sapiens) (UniProt P14416); settings: Compound concentration 10.0 uM
Description: D2 CEREP ligand profiling

[33] = biological target: Thromboxane A2 receptor (Homo sapiens) (UniProt P21731); settings: Compound concentration 10.0 uM
Description: TXA2/PGH2 CEREP ligand profiling

[34] = biological target: Muscarinic acetylcholine receptor M4 (Homo sapiens) (UniProt P08173); settings: Compound concentration 10.0 uM
Description: M4 CEREP ligand profiling

[35] = biological target: 5-hydroxytryptamine receptor 7 (Homo sapiens) (UniProt P34969); settings: Compound concentration 10.0 uM
Description: 5-HT7 CEREP ligand profiling

[36] = biological target: Prostacyclin receptor (Homo sapiens) (UniProt P43119); settings: Compound concentration 10.0 uM
Description: PGI2 CEREP ligand profiling

[37] = biological target: 5-hydroxytryptamine receptor 2A (Homo sapiens) (UniProt P28223); settings: Compound concentration 10.0 uM
Description: 5-HT2A CEREP ligand profiling

[38] = biological target: Neuropeptide Y receptor type 2 (Homo sapiens) (UniProt P49146); settings: Compound concentration 10.0 uM
Description: Y2 CEREP ligand profiling

D(4) dopamine receptor [39] = biological target: T1, D(4) dopamine receptor; assay: Radioligand assay (DRD4.4)

Chain of Serine/threonine-protein kinase Nek10 (Homo sapiens) (Q6ZWH5 whole entry): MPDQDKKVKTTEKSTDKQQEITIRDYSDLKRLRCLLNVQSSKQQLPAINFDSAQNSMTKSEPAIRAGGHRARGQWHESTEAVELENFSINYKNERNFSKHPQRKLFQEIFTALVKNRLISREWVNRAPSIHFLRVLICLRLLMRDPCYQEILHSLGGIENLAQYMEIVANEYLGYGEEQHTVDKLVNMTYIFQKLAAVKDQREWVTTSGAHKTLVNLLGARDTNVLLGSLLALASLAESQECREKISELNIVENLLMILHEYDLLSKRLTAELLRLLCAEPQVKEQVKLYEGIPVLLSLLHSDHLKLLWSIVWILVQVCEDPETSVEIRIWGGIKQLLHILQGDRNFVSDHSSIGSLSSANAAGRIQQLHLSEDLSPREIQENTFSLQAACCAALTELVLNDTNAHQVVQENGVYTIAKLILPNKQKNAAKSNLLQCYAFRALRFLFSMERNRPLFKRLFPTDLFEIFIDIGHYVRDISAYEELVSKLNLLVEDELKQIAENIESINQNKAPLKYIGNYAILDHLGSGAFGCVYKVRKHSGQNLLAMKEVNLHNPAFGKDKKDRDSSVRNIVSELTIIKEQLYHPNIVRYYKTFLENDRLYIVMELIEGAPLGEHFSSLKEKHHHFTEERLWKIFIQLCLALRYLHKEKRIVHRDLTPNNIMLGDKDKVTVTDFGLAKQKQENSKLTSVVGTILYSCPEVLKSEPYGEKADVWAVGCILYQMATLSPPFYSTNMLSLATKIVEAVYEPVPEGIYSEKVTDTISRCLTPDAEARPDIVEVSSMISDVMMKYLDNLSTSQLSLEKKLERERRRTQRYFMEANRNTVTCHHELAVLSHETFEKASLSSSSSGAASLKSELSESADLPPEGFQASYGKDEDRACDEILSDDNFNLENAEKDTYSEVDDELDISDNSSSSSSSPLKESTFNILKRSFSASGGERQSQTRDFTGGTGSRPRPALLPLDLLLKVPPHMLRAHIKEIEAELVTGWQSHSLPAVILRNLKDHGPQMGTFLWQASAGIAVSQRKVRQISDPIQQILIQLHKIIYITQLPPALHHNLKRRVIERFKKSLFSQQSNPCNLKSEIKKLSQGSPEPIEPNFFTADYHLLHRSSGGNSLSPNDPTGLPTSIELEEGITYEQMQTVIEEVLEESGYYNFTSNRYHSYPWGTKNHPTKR
Chain of Mitogen-activated protein kinase 7 (Homo sapiens) (Q13164 2-816 limits assumed): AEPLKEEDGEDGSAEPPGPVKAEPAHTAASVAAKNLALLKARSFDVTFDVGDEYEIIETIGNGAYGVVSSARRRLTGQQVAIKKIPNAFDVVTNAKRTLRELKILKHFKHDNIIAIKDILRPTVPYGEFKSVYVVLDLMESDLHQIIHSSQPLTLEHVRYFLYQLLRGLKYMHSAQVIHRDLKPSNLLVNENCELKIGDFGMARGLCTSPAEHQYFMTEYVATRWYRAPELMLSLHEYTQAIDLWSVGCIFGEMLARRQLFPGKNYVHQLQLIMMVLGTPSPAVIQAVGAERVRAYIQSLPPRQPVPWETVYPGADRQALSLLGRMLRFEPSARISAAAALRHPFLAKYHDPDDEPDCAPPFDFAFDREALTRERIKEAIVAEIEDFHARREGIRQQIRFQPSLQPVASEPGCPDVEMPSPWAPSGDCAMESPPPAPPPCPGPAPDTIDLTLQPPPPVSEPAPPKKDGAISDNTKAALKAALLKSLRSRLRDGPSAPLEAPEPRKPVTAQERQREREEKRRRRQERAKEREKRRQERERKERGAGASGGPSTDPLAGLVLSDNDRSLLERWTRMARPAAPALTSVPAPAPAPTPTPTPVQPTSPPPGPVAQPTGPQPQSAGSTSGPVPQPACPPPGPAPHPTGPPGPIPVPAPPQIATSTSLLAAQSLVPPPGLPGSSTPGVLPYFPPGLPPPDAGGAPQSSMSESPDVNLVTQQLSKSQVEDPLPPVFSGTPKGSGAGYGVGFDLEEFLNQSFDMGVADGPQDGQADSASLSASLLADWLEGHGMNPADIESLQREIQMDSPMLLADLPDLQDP
Chain of Mitogen-activated protein kinase kinase kinase 9 (Homo sapiens) (P80192 whole entry, looked up): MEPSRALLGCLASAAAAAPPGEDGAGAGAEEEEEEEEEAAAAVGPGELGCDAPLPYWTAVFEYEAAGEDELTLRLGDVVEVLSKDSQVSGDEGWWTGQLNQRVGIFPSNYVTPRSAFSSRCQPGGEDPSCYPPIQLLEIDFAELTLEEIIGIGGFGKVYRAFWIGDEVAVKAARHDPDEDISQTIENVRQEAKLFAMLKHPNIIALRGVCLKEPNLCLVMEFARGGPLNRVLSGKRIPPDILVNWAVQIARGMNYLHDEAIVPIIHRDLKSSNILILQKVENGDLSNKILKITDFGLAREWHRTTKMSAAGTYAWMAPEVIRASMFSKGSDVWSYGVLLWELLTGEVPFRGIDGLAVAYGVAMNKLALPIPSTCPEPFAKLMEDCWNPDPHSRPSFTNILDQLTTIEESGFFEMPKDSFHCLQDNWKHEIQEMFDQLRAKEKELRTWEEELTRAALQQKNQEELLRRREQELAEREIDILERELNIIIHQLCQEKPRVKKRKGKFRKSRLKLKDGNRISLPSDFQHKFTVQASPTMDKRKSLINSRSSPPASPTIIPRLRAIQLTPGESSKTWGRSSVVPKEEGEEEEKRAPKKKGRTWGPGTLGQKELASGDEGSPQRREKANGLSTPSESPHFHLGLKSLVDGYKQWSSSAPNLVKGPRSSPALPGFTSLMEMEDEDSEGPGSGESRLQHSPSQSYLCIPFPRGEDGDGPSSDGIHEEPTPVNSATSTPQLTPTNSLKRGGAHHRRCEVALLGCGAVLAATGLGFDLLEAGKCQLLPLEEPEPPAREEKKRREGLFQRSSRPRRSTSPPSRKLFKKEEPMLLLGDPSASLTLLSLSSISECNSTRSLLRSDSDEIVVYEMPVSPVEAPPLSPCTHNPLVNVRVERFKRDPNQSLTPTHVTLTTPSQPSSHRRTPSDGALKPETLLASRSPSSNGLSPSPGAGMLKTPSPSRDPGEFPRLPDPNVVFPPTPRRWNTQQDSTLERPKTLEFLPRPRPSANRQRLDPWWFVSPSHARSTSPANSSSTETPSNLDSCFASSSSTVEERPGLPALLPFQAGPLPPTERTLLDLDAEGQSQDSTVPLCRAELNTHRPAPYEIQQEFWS
Chain of Serine/threonine-protein kinase 35 (Homo sapiens) (Q8TDR2 whole entry): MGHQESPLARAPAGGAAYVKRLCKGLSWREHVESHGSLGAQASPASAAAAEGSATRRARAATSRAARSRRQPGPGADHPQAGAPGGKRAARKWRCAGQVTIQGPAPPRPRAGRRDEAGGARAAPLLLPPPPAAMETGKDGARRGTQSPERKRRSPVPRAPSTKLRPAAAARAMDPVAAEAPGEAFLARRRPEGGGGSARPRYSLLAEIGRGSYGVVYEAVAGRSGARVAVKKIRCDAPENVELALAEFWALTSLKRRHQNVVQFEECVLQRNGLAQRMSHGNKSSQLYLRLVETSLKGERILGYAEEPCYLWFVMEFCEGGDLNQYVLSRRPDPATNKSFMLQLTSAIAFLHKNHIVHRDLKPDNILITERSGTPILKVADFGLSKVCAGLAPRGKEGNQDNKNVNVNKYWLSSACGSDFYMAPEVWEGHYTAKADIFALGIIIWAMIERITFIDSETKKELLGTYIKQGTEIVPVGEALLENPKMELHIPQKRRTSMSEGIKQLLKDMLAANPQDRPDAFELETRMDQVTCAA
Chain of Homeodomain-interacting protein kinase 3 (Homo sapiens) (Q9H422 whole entry, looked up): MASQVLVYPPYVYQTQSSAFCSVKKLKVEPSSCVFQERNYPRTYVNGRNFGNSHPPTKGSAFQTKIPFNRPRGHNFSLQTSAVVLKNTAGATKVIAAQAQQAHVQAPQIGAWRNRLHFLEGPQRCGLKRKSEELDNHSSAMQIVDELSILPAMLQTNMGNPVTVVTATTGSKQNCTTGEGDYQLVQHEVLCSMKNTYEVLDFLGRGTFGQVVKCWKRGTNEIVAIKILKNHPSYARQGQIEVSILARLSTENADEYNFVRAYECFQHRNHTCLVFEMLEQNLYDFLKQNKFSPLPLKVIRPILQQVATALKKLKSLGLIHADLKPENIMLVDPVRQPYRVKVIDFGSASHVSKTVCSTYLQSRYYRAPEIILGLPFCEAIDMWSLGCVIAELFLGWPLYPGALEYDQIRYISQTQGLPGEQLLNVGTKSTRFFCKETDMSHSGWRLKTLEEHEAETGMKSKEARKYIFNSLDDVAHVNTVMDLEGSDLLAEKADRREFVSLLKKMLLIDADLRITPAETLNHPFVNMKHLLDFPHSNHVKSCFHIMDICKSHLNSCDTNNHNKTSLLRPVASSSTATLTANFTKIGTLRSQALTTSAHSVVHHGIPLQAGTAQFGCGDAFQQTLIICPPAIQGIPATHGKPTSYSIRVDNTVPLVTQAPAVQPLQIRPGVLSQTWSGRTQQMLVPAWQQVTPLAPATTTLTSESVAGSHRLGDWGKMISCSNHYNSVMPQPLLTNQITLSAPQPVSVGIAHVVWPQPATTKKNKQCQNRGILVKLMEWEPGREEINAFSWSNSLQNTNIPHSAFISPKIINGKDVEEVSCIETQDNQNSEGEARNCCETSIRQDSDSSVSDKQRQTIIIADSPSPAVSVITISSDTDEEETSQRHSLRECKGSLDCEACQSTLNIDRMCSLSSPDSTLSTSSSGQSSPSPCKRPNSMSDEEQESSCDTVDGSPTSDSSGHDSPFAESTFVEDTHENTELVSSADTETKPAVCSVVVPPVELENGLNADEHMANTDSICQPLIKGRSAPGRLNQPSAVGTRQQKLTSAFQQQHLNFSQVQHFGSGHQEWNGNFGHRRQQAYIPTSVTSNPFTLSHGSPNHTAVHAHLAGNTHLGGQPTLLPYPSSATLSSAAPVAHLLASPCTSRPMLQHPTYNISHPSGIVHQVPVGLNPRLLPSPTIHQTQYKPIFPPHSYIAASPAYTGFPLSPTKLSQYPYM
Chain of Tumor necrosis factor (Homo sapiens) (P01375 whole entry): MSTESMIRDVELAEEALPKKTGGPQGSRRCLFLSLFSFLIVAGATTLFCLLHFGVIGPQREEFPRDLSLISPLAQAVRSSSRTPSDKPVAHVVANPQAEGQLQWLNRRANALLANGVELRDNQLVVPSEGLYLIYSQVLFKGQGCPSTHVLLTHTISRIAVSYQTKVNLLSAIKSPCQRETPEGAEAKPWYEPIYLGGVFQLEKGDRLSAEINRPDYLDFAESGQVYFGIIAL

CSc1cccnc1N1CCN(Cc2nc3ccccc3[nH]2)CC1 [A-769] showed a residual activity [1] of 100%, a residual activity [2] of 100% and a residual activity [3] of 100%. It also gave a residual activity [4] of 93%, a residual activity [5] of 100% and a residual activity [6] of 100%. For the same compound, the residual activity [7] was 88%, the residual activity [8] was 100% and the residual activity [9] was 100%. It also gave a residual activity [10] of 100%, a residual activity [11] of 96% and a residual activity [12] of 78%. For the same compound, the residual activity [13] was 82%, the residual activity [14] was 100% and the residual activity [15] was 100%.

Compound c1ccc(N2CCN(Cc3nc4ccccc4[nH]3)CC2)nc1 [ABT-724] has an inhibition [16] of less than 10%, a residual activity [1] of 97% and an inhibition [17] of 51%. For the same compound, the inhibition [18] was less than 10%, the inhibition [19] was less than 10% and the residual activity [2] was 100%. The inhibition [20] was less than 10%, the inhibition [21] was less than 10% and the inhibition [22] was 11%. For the same compound, the residual activity [3] was 100%, the inhibition [23] was 26% and the inhibition [24] was less than 10%. For the same compound, the residual activity [4] was 100%, the inhibition [25] was 17% and the inhibition [26] was less than 10%. The inhibition [27] was less than 10%, the residual activity [5] was 100% and the inhibition [28] was 17%. It also gave an inhibition [29] of less than 10%, a residual activity [6] of 69% and a residual activity [7] of 100%. For the same compound, the Ki (D(4) dopamine receptor [30]) was 57.5 nM (active), the inhibition [31] was less than 10% and the inhibition [32] was less than 10%. For the same compound, the residual activity [8] was 100%, the residual activity [9] was 100% and the residual activity [10] was 95%. It also gave a residual activity [11] of 100%, a residual activity [12] of 100% and an inhibition [33] of less than 10%. The inhibition [34] was less than 10%, the inhibition [35] was less than 10% and the inhibition [36] was less than 10%. For the same compound, the inhibition [37] was less than 10%, the inhibition [38] was less than 10% and the residual activity [14] was 100%. The Ki (D(4) dopamine receptor [39]) was 63.6 nM (active) and the residual activity [15] was 100%.
